# According to patent publication US8192962B2, “Processes for detecting toxic substances” (Daikin Industries, Ltd., priority 2001, dated 2012):
# Tested on: Stress protein genes
# Assay: DNA chip mRNA expression in yeast, stress protein genes (Table 6)
# Assay type: cell-based, Saccharomyces cerevisiae S288C
# Description: Yeast (Saccharomyces cerevisiae S288C (α SUC2mal mel gap2 CUP1)) were incubated at 25° C. on YPD medium (yeast extract 1%, polypepton 2%, glucose 2%). One of toxic chemical substances was added to the cells at logarithmic growth phase, and the cells were further incubated for two hours. Cells were cultured without any chemical substance in the same condition, and were used as control. Concentrations of the chemical substances were defined to inhibit the growth of the yeast but not lead to death.
# After completion of the incubation, the culture was centrifuged to collect the cells. To the cells, sodium acetate buffer (50 mM sodium acetate, 10 mM EDTA, 1% SDS) was added, and the mixture was shaken at 65° C. for five minutes, followed by returning to room temperature, and obtaining the supernatant, of which the procedures were repeated two times. To the supernatant, ½ amount of a solution of phenol/chloroform was added, and the mixture was centrifuged to give a supernatant, which was added with an equal amount of chloroform, and the mixture was centrifuged to give a supernatant. To the supernatant, an equal amount of isopropanol containing 0.3 M sodium acetate was added, and the mixture was allowed to stand at room temperature for 30 minutes, after which the mixture was centrifuged to give a sediment of the whole RNAs. Seventy % ethanol was added to the sediment, and the mixture was again centrifuged to give a sediment, which was then dried and dissolved in water. mRNA was isolated from the whole RNAs as followings. In view of the fact that a poly A chain is attached to the 3′ terminus of mRNA, a polynucleotide having a poly T structure which was immobilized on the surface of latex beads was used to trap the mRNA, and then the mRNA was washed and eluted with spine column (Oligotex-dT30<Super>mRNA Purification Kit, Takara). Reverse transcription of the mRNA was conducted with a reverse transcriptase (Super Script II Reverse Transcriptase; catalogue No. 18064-014, GibcoBRL) using fluorescence-labeled nucleotides to give cDNAs that were introduced with Cy3-dUTP or Cy5-dUTP during the reverse transcription.
# The labeled cDNAs were dissolved in TE buffer (10mM Tris-HCl/1 mM EDTA, pH8.0), and the solution was dropped on the DNA chip containing the whole genes of yeast (DNA Chip Research Inc. Japan) so that the cDNAs were hybridized on the DNA chip at 65° C. for over 12 hours. The fluoresces intensity of the DNA chip was read with a scanner, and the ratio relative to the fluorescence intensity resulting from the absence of chemical substance was estimated as the following, which is shown in Tables 1 to 9: […]
compound,measurement,setting,value
"Oc1cc(Cl)c(Cl)cc1Cl [(6), 2,4,5-trichlorophenol]",The level of expressed mRNA in the presence of chemical substance/The level of expressed mRNA in the absence of chemical substance,yeast gene YIL011W,0.7
same,The level of expressed mRNA in the presence of chemical substance/The level of expressed mRNA in the absence of chemical substance,yeast gene YIL033C,2.0
same,The level of expressed mRNA in the presence of chemical substance/The level of expressed mRNA in the absence of chemical substance,yeast gene YIR037W,2.7
same,The level of expressed mRNA in the presence of chemical substance/The level of expressed mRNA in the absence of chemical substance,yeast gene YIR038C,2.5
same,The level of expressed mRNA in the presence of chemical substance/The level of expressed mRNA in the absence of chemical substance,yeast gene YJL128C,1.3
same,The level of expressed mRNA in the presence of chemical substance/The level of expressed mRNA in the absence of chemical substance,yeast gene YJL158C,0.5
same,The level of expressed mRNA in the presence of chemical substance/The level of expressed mRNA in the absence of chemical substance,yeast gene YJL159W,1.8
same,The level of expressed mRNA in the presence of chemical substance/The level of expressed mRNA in the absence of chemical substance,yeast gene YJL165C,0.5
same,The level of expressed mRNA in the presence of chemical substance/The level of expressed mRNA in the absence of chemical substance,yeast gene YJR045C,1.2
same,The level of expressed mRNA in the presence of chemical substance/The level of expressed mRNA in the absence of chemical substance,yeast gene YJR090C,1.2
same,The level of expressed mRNA in the presence of chemical substance/The level of expressed mRNA in the absence of chemical substance,yeast gene YKL161C,2.0
same,The level of expressed mRNA in the presence of chemical substance/The level of expressed mRNA in the absence of chemical substance,yeast gene YKL163W,1.1
same,The level of expressed mRNA in the presence of chemical substance/The level of expressed mRNA in the absence of chemical substance,yeast gene YKL164C,1.4
same,The level of expressed mRNA in the presence of chemical substance/The level of expressed mRNA in the absence of chemical substance,yeast gene YKL210W,1.4
same,The level of expressed mRNA in the presence of chemical substance/The level of expressed mRNA in the absence of chemical substance,yeast gene YKR053C,1.1
same,The level of expressed mRNA in the presence of chemical substance/The level of expressed mRNA in the absence of chemical substance,yeast gene YLL024C,1.0
same,The level of expressed mRNA in the presence of chemical substance/The level of expressed mRNA in the absence of chemical substance,yeast gene YLL026W,1.9
same,The level of expressed mRNA in the presence of chemical substance/The level of expressed mRNA in the absence of chemical substance,yeast gene YLL039C,1.5
same,The level of expressed mRNA in the presence of chemical substance/The level of expressed mRNA in the absence of chemical substance,yeast gene YLL060C,1.4
same,The level of expressed mRNA in the presence of chemical substance/The level of expressed mRNA in the absence of chemical substance,yeast gene YLR006C,0.9
same,The level of expressed mRNA in the presence of chemical substance/The level of expressed mRNA in the absence of chemical substance,yeast gene YLR109W,2.1
same,The level of expressed mRNA in the presence of chemical substance/The level of expressed mRNA in the absence of chemical substance,yeast gene YLR259C,0.9
same,The level of expressed mRNA in the presence of chemical substance/The level of expressed mRNA in the absence of chemical substance,yeast gene YML007W,0.5
same,The level of expressed mRNA in the presence of chemical substance/The level of expressed mRNA in the absence of chemical substance,yeast gene YML070W,2.2
same,The level of expressed mRNA in the presence of chemical substance/The level of expressed mRNA in the absence of chemical substance,yeast gene YMR021C,2.2
same,The level of expressed mRNA in the presence of chemical substance/The level of expressed mRNA in the absence of chemical substance,yeast gene YMR173W,5.0
same,The level of expressed mRNA in the presence of chemical substance/The level of expressed mRNA in the absence of chemical substance,yeast gene YMR186W,1.3
same,The level of expressed mRNA in the presence of chemical substance/The level of expressed mRNA in the absence of chemical substance,yeast gene YNL064C,0.8
same,The level of expressed mRNA in the presence of chemical substance/The level of expressed mRNA in the absence of chemical substance,yeast gene YNL160W,5.8
same,The level of expressed mRNA in the presence of chemical substance/The level of expressed mRNA in the absence of chemical substance,yeast gene YNL241C,0.9
same,The level of expressed mRNA in the presence of chemical substance/The level of expressed mRNA in the absence of chemical substance,yeast gene YNR076W,1.2
same,The level of expressed mRNA in the presence of chemical substance/The level of expressed mRNA in the absence of chemical substance,yeast gene YOL064C,1.4
same,The level of expressed mRNA in the presence of chemical substance/The level of expressed mRNA in the absence of chemical substance,yeast gene YOL161C,1.0
same,The level of expressed mRNA in the presence of chemical substance/The level of expressed mRNA in the absence of chemical substance,yeast gene YOR008C,1.1
same,The level of expressed mRNA in the presence of chemical substance/The level of expressed mRNA in the absence of chemical substance,yeast gene YOR009W,0.9
same,The level of expressed mRNA in the presence of chemical substance/The level of expressed mRNA in the absence of chemical substance,yeast gene YOR010C,0.5
same,The level of expressed mRNA in the presence of chemical substance/The level of expressed mRNA in the absence of chemical substance,yeast gene YOR027W,1.6
same,The level of expressed mRNA in the presence of chemical substance/The level of expressed mRNA in the absence of chemical substance,yeast gene YOR208W,1.8
same,The level of expressed mRNA in the presence of chemical substance/The level of expressed mRNA in the absence of chemical substance,yeast gene YPL059W,1.3
same,The level of expressed mRNA in the presence of chemical substance/The level of expressed mRNA in the absence of chemical substance,yeast gene YPL106C,1.6
same,The level of expressed mRNA in the presence of chemical substance/The level of expressed mRNA in the absence of chemical substance,yeast gene YPL140C,0.3
same,The level of expressed mRNA in the presence of chemical substance/The level of expressed mRNA in the absence of chemical substance,yeast gene YPL194W,1.1
same,The level of expressed mRNA in the presence of chemical substance/The level of expressed mRNA in the absence of chemical substance,yeast gene YPL223C,1.5
same,The level of expressed mRNA in the presence of chemical substance/The level of expressed mRNA in the absence of chemical substance,yeast gene YPL240C,1.2
same,The level of expressed mRNA in the presence of chemical substance/The level of expressed mRNA in the absence of chemical substance,yeast gene YPR005C,0.8
